Earlier results as cited in patent US20230413809A1, “DISINFECTANT COMPOSITION FOR SURFACES AND THE PREPARATION THEREOF” (Onyx Lotus, LLC, priority 2020, published 2023).

Details: general statement on surfactant detergency, no test described

| Compound | Critical micellar concentration (CMC) [mM] |
| --- | --- |
| CCCCCCCCCCCCCCCC[N+](C)(C)C.[Br-] [CTAB, cetyltrimethylammonium bromide] | 0.92 |
| O=C([O-])CC(C(=O)[O-])S(=O)(=O)O.[Na+].[Na+] (centres unmarked) [sodium sulfosuccinate] | 0.6 |
